Measured values from article PMC5414049 (Science (New York, N.Y.), 2016).

How the values were obtained:
Assay type in all cases: biochemical
[1] = molecular target: ornithine transcarbamylase (Arg3) (Saccharomyces cerevisiae, UniProt P05150)
pyruvate kinase (Cdc19) = molecular target: T1, pyruvate kinase (Cdc19) (Saccharomyces cerevisiae, UniProt P00549)
T1 sequence (P00549 2-500): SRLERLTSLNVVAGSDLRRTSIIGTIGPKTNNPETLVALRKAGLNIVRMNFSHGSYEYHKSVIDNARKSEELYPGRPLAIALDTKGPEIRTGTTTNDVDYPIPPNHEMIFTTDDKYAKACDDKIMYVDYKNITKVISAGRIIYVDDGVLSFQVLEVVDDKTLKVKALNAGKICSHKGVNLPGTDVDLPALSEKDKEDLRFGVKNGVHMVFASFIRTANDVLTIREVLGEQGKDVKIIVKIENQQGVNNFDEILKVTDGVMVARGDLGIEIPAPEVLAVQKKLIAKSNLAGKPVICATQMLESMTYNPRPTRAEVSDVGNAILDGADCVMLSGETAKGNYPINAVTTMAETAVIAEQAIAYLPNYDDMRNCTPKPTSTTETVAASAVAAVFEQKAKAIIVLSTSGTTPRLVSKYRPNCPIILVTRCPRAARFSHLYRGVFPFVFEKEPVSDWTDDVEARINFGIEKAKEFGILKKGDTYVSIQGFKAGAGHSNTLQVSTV

[2] = molecular target: T2, pyruvate decarboxylase (Pdc1) (Saccharomyces cerevisiae, UniProt P06169); assay: ADH/NADH-coupled spectrophotometric assay, 1H-NMR confirmation
T2 sequence (P06169 2-563): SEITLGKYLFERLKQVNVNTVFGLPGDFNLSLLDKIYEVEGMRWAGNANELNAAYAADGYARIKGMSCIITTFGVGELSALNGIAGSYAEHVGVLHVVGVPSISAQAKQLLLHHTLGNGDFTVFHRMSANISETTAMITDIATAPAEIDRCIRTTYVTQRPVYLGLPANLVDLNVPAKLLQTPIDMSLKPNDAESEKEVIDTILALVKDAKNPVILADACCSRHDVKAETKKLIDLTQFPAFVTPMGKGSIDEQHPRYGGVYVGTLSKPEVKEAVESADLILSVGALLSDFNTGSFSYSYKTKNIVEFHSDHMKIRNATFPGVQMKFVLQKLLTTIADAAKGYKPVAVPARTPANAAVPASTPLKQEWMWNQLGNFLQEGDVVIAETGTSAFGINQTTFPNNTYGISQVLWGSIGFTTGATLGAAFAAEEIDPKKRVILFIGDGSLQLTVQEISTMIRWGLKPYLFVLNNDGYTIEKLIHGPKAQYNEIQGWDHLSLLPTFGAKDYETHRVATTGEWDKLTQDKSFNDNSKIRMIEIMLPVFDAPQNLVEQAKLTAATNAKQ

ornithine transcarbamylase (Arg3), sequence (P05150 2-338): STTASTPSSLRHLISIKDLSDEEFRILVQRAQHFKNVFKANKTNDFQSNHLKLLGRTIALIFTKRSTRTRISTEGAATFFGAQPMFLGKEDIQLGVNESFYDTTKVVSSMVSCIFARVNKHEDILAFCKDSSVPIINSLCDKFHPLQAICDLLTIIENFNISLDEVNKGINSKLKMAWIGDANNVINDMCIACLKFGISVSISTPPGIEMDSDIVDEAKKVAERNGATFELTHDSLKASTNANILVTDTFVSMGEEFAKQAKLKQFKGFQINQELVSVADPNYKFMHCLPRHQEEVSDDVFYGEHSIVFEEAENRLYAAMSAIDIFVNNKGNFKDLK

## C[C@H](N)C(=O)O [alanine]
[1]
  Ki: 15 mM

## O=C(O)CC(O)(CC(=O)O)C(=O)O [citrate]
Pyruvate kinase (Cdc19)
  Ki: ~5 mM

## O=C(O)C(=O)Cc1ccccc1 [phenylpyruvate]
[2]
  Ki: 1 to 4 mM
